The source of these data is US20260060982A1, “USE OF BTK INHIBITOR AND SINGLE-DOSE DRUG” (HUBEI BIO-PHARMACEUTICAL INDUSTRIAL TECHNOLOGICAL INSTITUTE …, priority 2023, published 2026).

Data set [1] has as its system collagen-induced arthritis in DBA/1 mice. Description: Collagen-induced arthritis (CIA) model in mice. Format: in vivo. As to conditions: for average body weight: after day 33. Here is the method:
Clinical symptoms of arthritis were induced in mice by injecting collagen emulsion into the tail of mice. The specific steps were as follows:
DBA/1 mice were randomly divided into 6 groups, with 10 mice in each group except the blank control group (5 mice). […] The day of the first immunization was recorded as day 0, and the subsequent days were marked in sequence. DBA/1 mice were anesthetized with isoflurane and injected subcutaneously with 50 μl of the prepared collagen emulsion (containing 200 μg of CII) at the tail (2 cm to 3 cm from the base of the tail). On day 21, the same volume of collagen emulsion was injected into the tail in the same way.
On day 28, when the average clinical score reached 1 to 2, the mice were randomly redivided into 4 treatment groups (10 mice per group) and a blank vehicle control group (10 mice per group) according to body weight and score. […] The administration was performed once daily for 14 days by gavage at 10 mL/kg. After the administration, the clinical score curve of each animal in each group was analyzed to calculate the area under the curve (AUC). The inhibition rate of each administration group relative to the blank vehicle control was calculated based on the average AUC between groups.
Clinical observation: From 7 days before immunization to 21 days after immunization, the basic health status and weight changes of DBA/1 mice were observed daily (recorded twice a week). After day 22, the health status, disease incidence, and weight changes of the mice were observed daily (recorded every two days) until the end of the experiment.
When mice began to develop symptoms of arthritis (clinical symptoms of arthritis appeared), they were scored on a scale from 0 to 4 based on the severity of the lesions (redness, swelling, joint deformation), with a maximum score of 4 for each limb and a maximum score of 16 for each animal. The scoring was performed at least three times a week.
Pathology: On day 42, mice were euthanized. The two hind limbs of the mice were taken, soaked in 10% formalin solution, decalcified with formic acid solution, embedded in paraffin, sectioned, stained with hematoxylin-eosin (HE), and observed under a microscope. The degree of joint damage was evaluated from four aspects: inflammatory cell infiltration, pannus formation, cartilage damage, and bone resorption, and scored on a scale from 0 to 4.

Data set [2] has as its system PG-PS-induced arthritis in Lewis rats. Description: PG-PS-induced arthritis model in rats. The format is in vivo. As to conditions: for joint tissue lesions (pathology): day 30. The text has this:
Intraperitoneal injection of PG-PS suspension can effectively induce chronic, erosive, and relapsing symptoms similar to human rheumatoid arthritis in rats, and is often used to evaluate the in vivo effectiveness of medicaments in the early discovery of arthritis medicaments. The specific steps were as follows:
On day 0, Lewis rats were randomly divided into 6 groups, with 5 rats in the first group and 10 rats in each group from the second group to the sixth group. All rats in the second to sixth groups were intraperitoneally injected with PG-PS (Lee Laboratories, PG-PS 10S, 5.1 mg/ml Rhamnose) to establish the model. The PG-PS injection dose v=15 μg/g×bw (rat weight, in g)/5.1 μg/μL.
On day 1, the model rats (the second to sixth groups) were randomly redivided into 5 groups, with 10 rats in each group. The animals in each group were given the corresponding medicament or vehicle by gavage once a day until the 29th day. […] Clinical observations and clinical scoring were performed daily during the administration period. The ankle diameter of each animal after modeling was subtracted from its ankle diameter before modeling to obtain the ankle diameter difference (delta ankle diameter). The area under the curve (AUC) was calculated by analyzing the ankle diameter difference of each animal in each group. The inhibition rate of each administration group relative to the blank vehicle control was calculated by the average AUC between groups.
Pathology: On day 30, the rats were euthanized. The two hind limbs of rats were stained with toluidine blue to evaluate the degree of joint damage in terms of inflammatory cell lesions, pannus formation, cartilage damage, bone resorption, and periosteal new bone formation, and the severity was scored on a scale from 0 to 7.

Data set [3] in a line: Phase I single-dose clinical trial, safety and tolerability. Format: in vivo, human. As to conditions: compound (I) group, all doses (n = 80). The text has this:
In this example, 96 healthy Chinese aged 18 to 45 were recruited as subjects. The trial included 8 dose groups, each with 12 subjects, who were randomly divided into groups, 10 of whom received compound (I) capsules (i.e., the trial group) and 2 received placebo capsules (containing no compound (I), i.e., the control group or placebo group). […] The dosages involved in this example were all the amount of compound (I). Based on safety and exploration factors, the human MRSD (maximum recommended starting dose) of compound (I) capsule used in the example was set at 10 mg, and the human maximum recommended dose was set at 800 mg. A total of 8 dose groups were set up between the initial dose and the maximum dose (see Table 2 for the dose escalation scheme of the clinical trial): 10 mg, 25 mg, 50 mg, 100 mg, 200 mg, 400 mg, 600 mg, and 800 mg, and single administration safety and tolerability trials were conducted group by group.
The subjects fasted for 10 h before administration and took a single oral administration of compound (I) capsule or placebo capsule at the prescribed dose on the morning of the trial day. Water was prohibited within 2 h after the administration and food was prohibited within 4 h after the administration. Blood sample collection: 3.0 ml of venous blood was collected before administration (within 45 min) and at 10 min, 20 min, 0.5 h, 1 h, 1.5 h, 1.75 h, 2 h, 2.5 h, 3 h, 3.5 h, 4 h, 6 h, 8 h, 12 h, 16 h, 24 h, 36 h, 48 h, and 72 h after administration. Urine sample collection: Urine samples were collected before administration (within 2 h) and at 0-2 h, 2-4 h, 4-8 h, 8-12 h, 12-16 h, 16-24 h, 24-48 h, and 48-72 h after administration. Feces collection: Feces were collected before administration (within 3 days) and at 0-24 h, 24-48 h, and 48-72 h after administration.
Safety data set: including all subjects who received at least one administration and had post-administration safety data. […]

As for `C=CC(=O)N1CCC[C@@H](n2nc(-c3ccc(Oc4ccccn4)cc3)c3c(N)n[nH]c(=O)c32)C1` [compound (I), (R)-1-(1-acryloylpiperidin-3-yl)-4-amino-3-(4-(pyridin-2-yloxy)phenyl)-1H-pyrazolo[3,4-d]pyridazin-7(6H)-one], the figures for the “inflammation inhibition rate (AUC of clinical score vs blank vehicle control)” value in data set [1] (1 mg/kg once daily by gavage for 14 days), in data set [1] (3 mg/kg once daily by gavage for 14 days) and in data set [1] (10 mg/kg once daily by gavage for 14 days) were 65.5%, 82.4% and 83.9%, respectively. The average body weight result is listed as “remained basically unchanged” in data set [1] (1 mg/kg), “increased” in data set [1] (3 mg/kg) and “increased” in data set [1] (10 mg/kg). In addition, the “pathology of foot joint bone tissue” value in data set [1] (three dose groups (1, 3, and 10 mg/kg), day 42) was “only mild inflammation”. The “inhibition rate (AUC of ankle diameter difference vs blank vehicle control)” value in data set [2] (1 mg/kg once a day by gavage until the 29th day) is 47.7%; in data set [2] (3 mg/kg once a day by gavage until the 29th day), 64.7%; in data set [2] (10 mg/kg once a day by gavage until the 29th day), 77.3%. Also, the entries for the “joint tissue lesions (pathology)” value in data set [2] (1 mg/kg), in data set [2] (3 mg/kg) and in data set [2] (10 mg/kg) were “trend of alleviating tissue damage”, “significant improvement effect” and “significant improvement effect”, respectively. Besides, the “subjects with TEAEs” value in data set [3] stood at 25. In data set [3], the “subjects with TEAEs, share” value is given as 31.3%. In addition, in data set [3], the “treatment-emergent adverse events (TEAE), number of events” value is 35.
